Results from PubChem BioAssay (NCI).
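Following 48 hours of exposure in 96-well plates, responses at five concentrations were used to interpolate endpoints linearly. At the TGI there is no net growth.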

Assays:
Test in all cases: inhibition of tumour cell growth, NCI panel, 48 h
MCF7 breast = tested on: MCF7 breast
HOP-62 NSCLC = tested on: HOP-62 NSCLC
NCI-H522 lung = tested on: NCI-H522 lung
MOLT-4 leukemia = tested on: MOLT-4 leukemia
UACC-62 melanoma = tested on: UACC-62 melanoma
HL-60(TB) leukemia = tested on: HL-60(TB) leukemia
SF-539 CNS = tested on: SF-539 CNS
ACHN renal = tested on: ACHN renal
HOP-92 NSCLC = tested on: HOP-92 NSCLC
UACC-257 melanoma = tested on: UACC-257 melanoma
TK-10 renal = tested on: TK-10 renal
NCI-H460 lung = tested on: NCI-H460 lung
KM12 colon = tested on: KM12 colon
786-0 renal = tested on: 786-0 renal
SK-MEL-5 melanoma = tested on: SK-MEL-5 melanoma
SNB-19 CNS = tested on: SNB-19 CNS
RPMI-8226 leukemia = tested on: RPMI-8226 leukemia
T-47D breast = tested on: T-47D breast
IGROV1 ovarian = tested on: IGROV1 ovarian
CAKI-1 renal = tested on: CAKI-1 renal
SF-295 CNS = tested on: SF-295 CNS
HCT-116 colon = tested on: HCT-116 colon
A549 NSCLC = tested on: A549 NSCLC
SK-OV-3 ovarian = tested on: SK-OV-3 ovarian
NCI-H23 lung = tested on: NCI-H23 lung
MALME-3M melanoma = tested on: MALME-3M melanoma
U251 CNS = tested on: U251 CNS
HT29 colon = tested on: HT29 colon
M14 melanoma = tested on: M14 melanoma
MDA-N = tested on: MDA-N
OVCAR-3 ovarian = tested on: OVCAR-3 ovarian
MDA-MB-231 breast = tested on: MDA-MB-231 breast
OVCAR-8 ovarian = tested on: OVCAR-8 ovarian
NCI/ADR-RES ovarian = tested on: NCI/ADR-RES ovarian
SK-MEL-28 melanoma = tested on: SK-MEL-28 melanoma
HCC-2998 colon = tested on: HCC-2998 colon
OVCAR-4 ovarian = tested on: OVCAR-4 ovarian
PC-3 prostate = tested on: PC-3 prostate
A498 renal = tested on: A498 renal
DU-145 prostate = tested on: DU-145 prostate
SN12C renal = tested on: SN12C renal
SW-620 colon = tested on: SW-620 colon
EKVX NSCLC = tested on: EKVX NSCLC
SF-268 CNS = tested on: SF-268 CNS
BT-549 breast = tested on: BT-549 breast
OVCAR-5 ovarian = tested on: OVCAR-5 ovarian
COLO 205 colon = tested on: COLO 205 colon
HCT-15 colon = tested on: HCT-15 colon
LOX IMVI melanoma = tested on: LOX IMVI melanoma
CCRF-CEM leukemia = tested on: CCRF-CEM leukemia
MDA-MB-435 = tested on: MDA-MB-435
RXF 393 renal = tested on: RXF 393 renal
HS 578T breast = tested on: HS 578T breast
SK-MEL-2 melanoma = tested on: SK-MEL-2 melanoma
SNB-75 CNS = tested on: SNB-75 CNS
K-562 leukemia = tested on: K-562 leukemia
UO-31 renal = tested on: UO-31 renal
NCI-H226 lung = tested on: NCI-H226 lung
SR leukemia = tested on: SR leukemia

Measured: TGI

CC(C)(O)C1CC[C@]2(C)[C@H]3CC[C@@H]4[C@@]5(C)CCCC(C)(C)[C@@H]5CC[C@@]4(C)[C@]3(C)CC[C@@H]12 (stereo partly drawn)
not listed: SNB-75 CNS | K-562 leukemia | UO-31 renal | NCI-H226 lung | SR leukemia
> 100 µM: all other assays above

Cc1ccc(-c2cc(O)c3nc4ccccc4n3c2)cc1
not listed: ACHN renal | SK-MEL-5 melanoma | HCC-2998 colon | OVCAR-5 ovarian | SK-MEL-2 melanoma
> 100 µM: all other assays above
